In a melting point compilation (Tetko et al.; mined from patent text by program, amines drawn as free bases though some values may be those of a salt):

melting point | SMILES
183 to 185 °C | Cc1ncc([N+](=O)[O-])n1CCN1C(=O)C2c3cccc4cccc(c34)C2C1=O (stereo not drawn)
147 to 148 °C | CN(Cc1cc(C(F)(F)F)cc(C(F)(F)F)c1)C(=O)c1c(Cl)nc2ccccc2c1-c1ccccc1
45 to 49 °C | CCOC(=O)C1=C[C@@H]2OC(C)=N[C@@H]2[C@@H](NC(=O)OC(C)(C)C)C1
152 to 154 °C | CS(=O)(=O)Nc1cc(N)ccc1OC1CCCCC1
62 to 65 °C | COc1ccc(C(=O)C(CCC(C)=O)c2ccc(OC)cc2)cc1 (stereo not drawn)
181 to 182 °C | CC(=O)NC1C(NC(=O)NCCCl)OC(CO)C(O)C1O (stereo not drawn)
> 300 °C | O=C(O)c1cn(-c2ccc(F)cc2)c2c(F)c(N3Cc4ccc(Br)cc4C3)c(F)cc2c1=O
238 to 240 °C | COc1ccc(-n2c(=O)n(OCc3ccccc3)c(=O)c3cc(F)c(Cl)nc32)cc1
206 °C | Cc1[nH]cnc1CSCCNC1=C([N+](=O)[O-])CCCN1
170 to 171 °C | CCCOCCOc1cc2c(-c3ccccc3)c(CC(=O)Nc3ccc(Cl)cc3C(F)(F)F)c(=O)oc2cc1Cl
149 to 151 °C | COC(=O)C1CN(C(=O)c2ccc(OC(F)(F)F)cc2)c2cc(Cl)ccc2CN1S(=O)(=O)c1ccc(OC)cc1 (stereo not drawn)
158 to 159 °C | CC(=O)N[C@@H](C)COc1cnc(-c2nc3ccc(OCC4CC4)cc3o2)c(F)c1
124 °C | CCn1c(Nc2ccc(C(F)(F)F)cc2C(F)(F)F)nc(C(F)(F)F)c(Cl)c1=O
134 to 137 °C | C[C@H](NC(=O)c1c(C(=O)O)cccc1[N+](=O)[O-])C(=O)N1CCC[C@H]1C(=O)O
139 to 140 °C | COC(=O)CCC(=O)c1ccc2c(c1)CC(CNC(C)=O)C2 (stereo not drawn)
233 to 235 °C | O=C(O)CN(CF)C(=O)c1ccccc1
228 to 230 °C | COc1ccccc1NC(=O)NCc1nnc(C)n1-c1sc(C)c(C)c1C(=O)c1ccc(Cl)cc1
146 to 148 °C | COc1cc(Oc2cccc(C(F)(F)F)c2)nc(C(=O)NN=C2CCCC2)c1
114 to 116 °C | Oc1cccc(-c2noc3ccsc23)c1
97 to 100 °C | CN(C)CCNC(=O)c1cccc(N)c1
144 to 147 °C | CNC(=O)N(OC)C(=O)Nc1ccccc1F
140 to 142 °C | Oc1nc(-c2ccc(F)cc2)c(CCN2CCC(=Cc3cccc(F)c3)CC2)s1

melting point | SMILES
> 300 °C | CS(=O)(=O)N(CCN1C(=O)c2ccccc2C1=O)c1c(Cl)c(Cl)cc2[nH]c(=O)c(=O)[nH]c12
303 to 304 °C | O=C(O)c1cc(-c2ccc(Cl)cc2)nc(-c2ccc(Cl)c(Cl)c2)c1
230 to 232 °C | N=C(NS(=O)(=O)C=Cc1ccc([N+](=O)[O-])cc1)c1cccc([N+](=O)[O-])c1
57.4 to 59.1 °C | CCN(CC)CCSc1ccc(/C=C/C(=O)OC)cc1[N+](=O)[O-]
142 °C | O=[N+]([O-])c1cccc(-n2cnnc2C(F)(F)F)c1
263 to 265 °C | Nc1nc2c(sc(=O)n2CCCCC(=O)O)c(=O)[nH]1
160 to 162 °C | C(=C\c1nc(COc2ccc(-n3ccnc3)cc2)co1)/c1ccccc1
288 to 289 °C | CC1(C)OC(=O)Nc2ccc(-c3cc(C#N)cc(C#N)c3)cc21
228 °C | O=C(O)c1ccc([C@H]2CC[C@H](C3CCC4(CC3)OCCO4)CC2)cc1F
133 to 134 °C | Cc1cc(-c2cc(CN3CCN(C)CC3)c(=O)n(Cc3ccc(Cl)cc3)n2)ccc1F
213 to 215 °C | CCc1cc(C)cc(C)c1C1C(=O)N2CCN(OC)CCN2C1=O
235 to 240 °C | CCCCCC(=O)Nc1ccc2c(c1)c(Cc1ccc(C(=O)O)cc1OC)cn2CC(=O)O
113 to 114 °C | CCOC(=O)c1cn(-c2ccccc2)nc1OCc1ccccc1
162 to 164 °C | COc1cc(CC(=O)O)ccc1OCc1nc(-c2ccco2)oc1C
178 to 179 °C | COC(=O)CNC(=O)c1ccc(C(=O)NS(=O)(=O)c2ccc(CCNC(=O)CC3CCCCC3)cc2)cn1
124 to 126 °C | CN(C)Cc1ccc(CSCCNc2ncc(Cc3cccnc3)c(=O)[nH]2)cc1
71 to 72 °C | CC(C)(C)OC(=O)N1CCC(C(=O)C2CCCCC2=O)CC1 (stereo not drawn)
193 to 196 °C | Nc1nc(F)cc(F)n1
208 to 209 °C | Oc1cc(O)c2cc(-c3cc(F)cc(F)c3)oc2c1
65 to 67 °C | CC(O)=C(C#N)C(=O)c1ccc(F)cc1
101 °C | CC1(C)CC(OC(=O)CCCCCCCCC(=O)OC2CC(C)(C)N(O)C(C)(C)C2)CC(C)(C)N1O
144 to 146 °C | COC(=O)c1cc(C(=O)NCCN2CCOCC2)cc(-n2cccc2)c1

melting point | SMILES
85 to 95 °C | CCCCCNC(=O)C(C)Cc1ccc2c(c1)c(Cc1ccc(C(=O)O)cc1OC)cn2C (stereo not drawn)
179 °C | CC(C)(CNc1c(C(N)=O)cnn2cccc12)N1CCOCC1
136 to 139 °C | CC(C)c1nc(CO)n(Cc2cccnc2)c1Sc1cc(Cl)cc(Cl)c1
80 to 81 °C | O=C(c1ncc[nH]1)c1cc(F)c(F)cc1Cl
325 °C | CN1C(C)(C)CC(NC(=O)c2ccc(-c3cc4cc(Cl)c(Cl)cc4[nH]3)cc2)CC1(C)C
91 to 93.5 °C | CN1CCCCC1CCc1ccccc1NC(=O)c1ccc(OC(C)(C)C)cc1 (stereo not drawn)
203 to 205 °C | N#Cc1c(-c2cccc(CN)c2)cc(-c2ccccc2O)nc1NC(=O)c1cccs1
60 to 62 °C | C=Cc1cc(C(C)NC(=O)Nc2ccc(C(C)(C)C)cc2)ccc1NS(=O)(=O)C=C (stereo not drawn)
100 to 102 °C | CC(C)Oc1ccc2c(c1)OCC1c3ccccc3OC21 (stereo not drawn)
355 to 358 °C | Cc1ccc2oc(-c3ccc(C=Cc4ccc(C(=O)O)cc4)cc3)cc2c1
217 to 219 °C | C[C@@H]1[C@@H](N)CN1c1c(F)cc2c(=O)c(C(=O)O)cn3c2c1OC[C@H]3C
82 to 85 °C | OC(c1cccc(-c2cc3ccccc3[nH]2)c1)c1cc2ccccc2[nH]1 (stereo not drawn)
186 to 188 °C | CC(=O)c1c(C)[nH]c(C2CCCCC2)c1C
202 to 205 °C | CC(C)n1c(=S)nc(-c2ccccc2)c2cc3c(cc21)OCO3
196 to 198 °C | Oc1ccc(-c2cc3c(Br)c(O)ccc3o2)cc1
119 to 123 °C | COC1=C(OC)C(=O)C2=C(CC(CCCCCCCC(=O)O)(C(=O)O)C2)C1=O
209 to 210 °C | CC(C)(C)C(=O)c1c[nH]c2ncc(Cl)nc12
192 to 198 °C | O=C(O)CCc1cc2cc(Cl)c(Cl)cc2n1S(=O)(=O)c1ccccc1
> 300 °C | Cc1nc(-n2ccc(OCc3ccc(F)cc3)cc2=O)sc1C(=O)O
186 to 188 °C | O=C(Nc1ccccc1)Nc1cc(Cl)ccc1C(=O)O
217 to 218 °C | CCOCCOC(=O)C(=O)Nc1nc(-c2cc3ccc(O)cc3oc2=O)cs1
175 to 177 °C | c1ccc(C2NCCc3c2[nH]c2ccccc32)cc1 (stereo not drawn)

melting point | SMILES
160 °C | CC(Oc1ccc2nc(N)sc2c1)c1c(F)ccc(Cl)c1F (stereo not drawn)
159 to 164 °C | CC(=C(c1ccc(N(C)C)cc1)c1ccc(N(C)C)cc1)P(C1CCCCC1)C1CCCCC1
176 to 178 °C | CCc1nn(C2CCCC2)c2cc(C(=O)Nc3cccc4ncccc34)ccc12
142 °C | COc1cc2c(c(Cl)c1Cl)C(=O)C(C)(C)C2
157 to 160 °C | Cc1cc(Oc2ccc(S(C)(=O)=O)nc2)cc2cc(C3=NCC(CC(=O)N4CCS(=O)CC4)S3)[nH]c12 (stereo not drawn)
103 to 106 °C | CCOC(=O)COC1OCC[C@@H]1NC(=O)[C@H](Cc1ccccc1)NC(=O)OCc1ccccc1 (stereo partly drawn)
50 to 51 °C | COCCc1sc(C(C)(O)c2nc(C)c(CCOC)s2)nc1C
205 to 206 °C | CC1(C)Oc2ccc(C#N)cc2[C@@H](N2CCN(c3ccccc3)C2=O)[C@@H]1O (relative stereo)
222 °C | Cc1coc(NC(=S)Nc2c(C)cccc2Cl)n1
151 to 159 °C | O=C(O)Cn1cc(Cc2cccc(OCc3ccc4ccccc4n3)c2)c2ccccc21
118 to 120 °C | O=C1CN(c2ccc(F)cc2)CCN1
148 to 150 °C | COC(=O)Cc1ccccc1NC(=S)N(C)NC(=O)c1ccccc1
144 to 145 °C | NC(Cc1nc2cc(F)c(F)cc2nc1CP(=O)(O)O)C(=O)O (stereo not drawn)
181 °C | CCN(CC)C(=O)CCCC1CCN(Cc2cnc3cc(NC(=O)c4ccc(-c5ccc(F)cc5)cc4)c(C)cc3c2)CC1
81 to 89 °C | COc1ccc(Cn2c(=O)c3c(N4CCN(C)CC4)cc(Cl)cc3n(Cc3ccccc3)c2=O)cc1
157 to 158 °C | O=C1NCCNN1c1ccc(Cc2ccc(Cl)cc2)c(Cl)c1
135 to 137 °C | O=C1C(=Cc2sccc2Oc2ccccc2)CCc2cc(OCCn3ccnc3)ccc21
78 to 79 °C | COc1cc2c(cc1OCc1ccccc1)CCN(Cc1cccc(O[Si](C(C)C)(C(C)C)C(C)C)c1)C2
181 to 183 °C | COc1cc(OC)c2c(=O)[nH]c(-c3cc(C)c(OCCN4CCCC4)c(C)c3)nc2c1
132 to 135 °C | CCOC(=O)C1=C(C)NC(c2cnc(N)s2)=NC1c1ccc(F)cc1Cl (stereo not drawn)
214 to 216 °C | CCn1c(Cn2ccnc2-c2cc(F)ccc2F)nc2ncccc21

SMILES | melting point
Cc1cccc(C(=O)NC2CN3CCC2CC3)c1C (racemic) | 160 to 161 °C
COc1cc(C)cc(OC)c1C1=NC(NC(=O)Nc2cccc(C)c2)C(=O)N(C)c2ccccc21 (stereo not drawn) | 260 °C
Clc1ccc2nnnn2n1 | 104 to 105 °C
CCN(CC)CCc1ccc2cc(N)ccc2n1 | 93 to 94 °C
CC(C)NC(c1nccn1C)C1(c2ccc(Cl)c(Cl)c2)CCC1 (stereo not drawn) | 98 to 100 °C
CC[C@H]1CNCC[C@H]1CCc1c[nH]c2ccccc12 | 150 °C
O=C(Nc1ccccc1)ONC1=Nc2ccc(Cl)cc2C(c2ccccc2)=NC1 | 215 to 217 °C
CC(=O)c1sccc1CBr | 62 to 64 °C
COc1ccc(/C=C/[N+](=O)[O-])c(F)c1 | 80 to 82 °C
CNC(=O)CN1CCC2=C(C1)c1c(O)cc(C(C)C)cc1OC2(C)C | 178 to 190 °C
C=CCc1c(O)c(C)cc2c1C(C)(C)CC1(CC(C)(C)c3cc(O)c(C)cc3O1)O2 (stereo not drawn) | 102 to 104 °C
